Values quoted from earlier work in patent US20260308149A1, “NOVEL CARBOXAMIDE DERIVATIVES” (ANGELINI PHARMA S.P.A., priority 2023, published 2026).

Experiments:
pain models = conditions: Korsgaard et al., 2005; Xu et al., 2010; Wu et al., 2017; cited from earlier work
ALS patients = conditions: clinical trials in ALS; Wainger et al., 2021; cited from earlier work
[1] = system: preclinical models of tinnitus; conditions: Li, Choi and Tzounopoulos, 2013; cited from earlier work
peripheral neuropathy = conditions: preclinical; Nodera et al., 2011; cited from earlier work
[2] = system: Patient-derived motor neurons; conditions: ALS patient-derived motor neurons; Wainger et al., 2014; cited from earlier work
[3] = system: Dup15q patient-derived induced pluripotent cells; conditions: Fink et al., 2018; cited from earlier work
patients = conditions: MDD patients; Tan et al., 2018; cited from earlier work
spreading depression = conditions: Aiba and Noebels, 2021; cited from earlier work

## CCOC(=O)Nc1ccc(NCc2ccc(F)cc2)cc1N [Retigabine]
Pain models
  efficacy in preclinical pain models: some efficacy in preclinical pain models
ALS patients
  efficacy on functional biomarkers of ALS: showed efficacy on functional biomarkers of ALS
[1]
  prevention of the development of tinnitus: prevents the development of tinnitus in preclinical models
Peripheral neuropathy
  protection against peripheral neuropathy: protects against peripheral neuropathy
[2]
  rescue of membrane hyperexcitability phenotype: rescues the phenotype
[3]
  effect on phenotype: partially corrects their phenotype
patients
  antidepressant efficacy: showed antidepressant efficacy in patients
  reduction in depressive symptoms: significant reduction in depressive symptoms
Spreading depression
  efficacy in controlling spreading depression: shows efficacy in controlling spreading depression
